Read-outs that look alike come from different tables or passages of the source.
System: influenza A virus (A/PR/8/34)
Assay: microbe, parasite or virus in culture
Assay type: cell-based
[1] = Influenza A virus, PR/8, MDCK, mean all, A/PR/8/34 infected MDCK cells, CPE assay, read-out: IC50
[2] = mean all, A/PR/8/34 infected MDCK cells, CPE assay, read-out: IC50
[3] = Influenza A virus, PR/8, MDCK, MDCK cells infected with A/PR/8/34, survival of infected cells, class symbols, read-out: IC50 (mean all)
[4] = MDCK cells infected with A/PR/8/34, survival of infected cells, class symbols, read-out: IC50 (mean all)

Row | Structure (SMILES) | IC50 [1] [µM] | IC50 [3] [µM] | further results
1 | O=C(C1CC1)N1CCOC(CNc2nc(-c3c[nH]c4ncc(Cl)cc34)ncc2F)C1 (stereo not drawn) [Compound 450, (2-((2-(5-chloro-1H-pyrrolo[2,3-b]pyridin-3-yl)-5-fluoropyrimidin-4-ylamino)methyl)morpholino)(cyclopropyl)methanone] | 5 to 20 | – | –
2 | O=C(C1CC1)N1CCC[C@H](Nc2nc(-c3c[nH]c4ncc(Cl)cc34)ncc2F)C1 [Compound 451] | 5 to 20 | – | –
3 | CC(C)S(=O)(=O)N1CCCC(Nc2ccnc(-c3c[nH]c4ncc(Cl)cc34)n2)C1 (stereo not drawn) [Compound 465] | – | – | IC50 [2]: 5 to 20 µM
4 | CS(=O)(=O)N1CCCC(Nc2ccnc(-c3c[nH]c4ncc(Cl)cc34)n2)C1 (stereo not drawn) [Compound 466] | – | – | IC50 [2]: 5 to 20 µM
5 | O=C(C1CCOC1)N1CCC(Nc2nc(-c3c[nH]c4ncc(Cl)cc34)ncc2F)C1 (stereo not drawn) [Compound 467] | – | – | IC50 [2]: > 20 µM
6 | COCC(=O)N1CC(Nc2nc(-c3c[nH]c4ncc(Cl)cc34)ncc2F)C1 [Compound 468] | 5 to 20 | – | –
7 | O=S(=O)(CC1CCCC1)N1CC(Nc2nc(-c3c[nH]c4ncc(Cl)cc34)ncc2F)C1 [Compound 469, 2-(5-chloro-1H-pyrrolo[2,3-b]pyridin-3-yl)-N-(1-(cyclopentyl-methylsulfonyl)azetidin-3-yl)-5-fluoropyrimidin-4-amine] | > 20 | – | –
8 | CC(=O)N1CCC(Nc2nc(-c3c[nH]c4ncc(Cl)cc34)ncc2F)C1 (stereo not drawn) [Compound 471] | – | – | IC50 [2]: < 5 µM
9 | CC1(C(=O)N2CC[C@@H](Nc3nc(-c4c[nH]c5ncc(Cl)cc45)ncc3F)C2)COC1 [Compound 473] | 5 to 20 | – | –
10 | O=C(OCC1CCOC1)N1CCC(Nc2nc(-c3c[nH]c4ncc(Cl)cc34)ncc2F)C1 (stereo not drawn) [Compound 475] | – | – | IC50 [2]: > 20 µM
11 | COC(=O)N1CC[C@H](Nc2nc(-c3c[nH]c4ncc(Cl)cc34)ncc2F)C1 [Compound 476] | 5 to 20 | – | –
12 | CC(C)OC(=O)N1CC[C@H](Nc2nc(-c3c[nH]c4ncc(Cl)cc34)ncc2F)C1 [Compound 477] | > 20 | – | –
13 | O=C(C1CCOC1)N1CC[C@H](Nc2nc(-c3c[nH]c4ncc(Cl)cc34)ncc2F)C1 (stereo partly drawn) [Compound 478] | – | – | IC50 (read-out: IC50): 5 to 20 µM
14 | O=S(=O)(CC1CCCC1)N1CC[C@H](Nc2nc(-c3c[nH]c4ncc(Cl)cc34)ncc2F)C1 [Compound 479, (S)-2-(5-chloro-1H-pyrrolo[2,3-b]pyridin-3-yl)-N-(1-(cyclopentylmethylsulfonyl)pyrrolidin-3-yl)-5-fluoropyrimidin-4-amine] | > 20 | – | –
15 | CC(=O)N1CC[C@H](Nc2nc(-c3c[nH]c4ncc(Cl)cc34)ncc2F)C1 [Compound 480] | < 5 | – | –
16 | COCC(=O)N1CC[C@H](Nc2nc(-c3c[nH]c4ncc(Cl)cc34)ncc2F)C1 [Compound 481] | 5 to 20 | – | –
17 | CC1(C(=O)N2CC[C@H](Nc3nc(-c4c[nH]c5ncc(Cl)cc45)ncc3F)C2)COC1 [Compound 482] | < 5 | – | –
18 | O=C(C1CNCCO1)N1CC[C@H](Nc2nc(-c3c[nH]c4ncc(Cl)cc34)ncc2F)C1 (stereo partly drawn) [Compound 483] | > 20 | – | –
19 | O=C(OCC1CCOC1)N1CC[C@H](Nc2nc(-c3c[nH]c4ncc(Cl)cc34)ncc2F)C1 (stereo partly drawn) [Compound 484] | – | 5 to 20 | –
20 | CC(=O)N1CCC[C@H](Nc2ccnc(-c3c[nH]c4ncc(Cl)cc34)n2)C1 [Compound 485] | – | 5 to 20 | –

Row | Structure (SMILES) | IC50 [1] [µM] | IC50 [3] [µM] | further results
21 | COCC(=O)N1CCC[C@H](Nc2nc(-c3c[nH]c4ncc(Cl)cc34)ncc2F)C1 [Compound 486] | – | – | IC50 (read-out: IC50 (mean all)): 5 to 20 µM
22 | COC(=O)CCC(=O)N1CCCC(Nc2ccnc(-c3c[nH]c4ncc(Cl)cc34)n2)C1 [Compound 487, (S)-methyl 4-(3-((2-(5-chloro-1H-pyrrolo[2,3-b]pyridin-3-yl)pyrimidin-4-ylamino)piperidin-1-yl)-4-oxobutanoate] | – | 5 to 20 | –
23 | COCCC(=O)N1CCC[C@H](Nc2nc(-c3c[nH]c4ncc(Cl)cc34)ncc2F)C1 [Compound 488] | – | – | IC50 (read-out: IC50 (mean all)): > 20 µM
24 | CC(C)CC(=O)N1CCC[C@H](Nc2ccnc(-c3c[nH]c4ncc(Cl)cc34)n2)C1 [Compound 489] | – | < 5 | –
25 | COCC(=O)N1CCC[C@H](CNc2ccnc(-c3c[nH]c4ncc(Cl)cc34)n2)C1 [Compound 491, (R)-1-(3-((2-(5-chloro-1H-pyrrolo[2,3-b]pyridin-3-yl)pyrimidin-4-ylamino)methyl)piperidin-1-yl)-2-methoxyethanone] | – | < 5 | –
26 | COC(=O)CCC(=O)N1CCCC(CNc2ccnc(-c3c[nH]c4ncc(Cl)cc34)n2)C1 (stereo not drawn) [Compound 492] | – | – | IC50 [4]: 5 to 20 µM
27 | CC(C)CC(=O)N1CCC[C@H](CNc2ccnc(-c3c[nH]c4ncc(Cl)cc34)n2)C1 [Compound 494, (R)-1-(3-((2-(5-chloro-1H-pyrrolo[2,3-b]pyridin-3-yl)pyrimidin-4-ylamino)methyl)piperidin-1-yl)-3-methylbutan-1-one] | – | 5 to 20 | –
28 | CS(=O)(=O)N1CCCC(Nc2nc(-c3c[nH]c4ncc(Cl)cc34)ncc2F)CC1 (stereo not drawn) [Compound 496, N-(2-(5-chloro-1H-pyrrolo[2,3-b]pyridin-3-yl)-5-fluoropyrimidin-4-yl)-1-(methylsulfonyl)azepan-4-amine] | – | 5 to 20 | –
29 | COC(=O)N1CCCC(Nc2nc(-c3c[nH]c4ncc(Cl)cc34)ncc2F)CC1 (stereo not drawn) [Compound 498, methyl 4-(2-(5-chloro-1H-pyrrolo[2,3-b]pyridin-3-yl)-5-fluoropyrimidin-4-ylamino)azepane-1-carboxylate] | – | < 5 | –
30 | O=C1NCCCC[C@@H]1Nc1ccnc(-c2c[nH]c3ncc(F)cc23)n1 [Compound 501] | – | 5 to 20 | –
31 | O=C1CC[C@H](CNc2nc(-c3c[nH]c4ncc(Cl)cc34)ncc2F)N1 [Compound 503] | – | < 5 | –
32 | CS(=O)(=O)N1CC(Nc2nc(-c3c[nH]c4ncc(Cl)cc34)ncc2F)C1 [Compound 508] | – | – | IC50 [4]: > 20 µM
33 | NC1CCCC(Nc2ccnc(-c3c[nH]c4ncc(Cl)cc34)n2)C1 (stereo not drawn) [Compound 510] | – | – | IC50 [4]: > 20 µM
34 | CC(C)(C)OC(=O)N1CCOCC1CNc1nc(-c2c[nH]c3ncc(Cl)cc23)ncc1F (stereo not drawn) [Compound 515, Tert-Butyl 3-((2-(5-chloro-1H-pyrrolo[2,3-b]pyridin-3-yl)-5-fluoropyrimidin-4-ylamino)methyl)morpholine-4-carboxylate] | – | > 20 | –
35 | CCC(=O)N1CCOCC1CNc1nc(-c2c[nH]c3ncc(Cl)cc23)ncc1F (stereo not drawn) [Compound 516, 1-(3-((2-(5-chloro-1H-pyrrolo[2,3-b]pyridin-3-yl)-5-fluoropyrimidin-4-ylamino)methyl)morpholino)propan-1-one] | – | 5 to 20 | –
36 | CCCNC(=O)N1CCOCC1CNc1nc(-c2c[nH]c3ncc(Cl)cc23)ncc1F (stereo not drawn) [Compound 517, 3-((2-(5-chloro-1H-pyrrolo[2,3-b]pyridin-3-yl)-5-fluoropyrimidin-4-ylamino)methyl)-N-propylmorpholine-4-carboxamide] | – | 5 to 20 | –
37 | CCN(CC)C(=O)[C@@H]1CCCC[C@@H]1Nc1nc(-c2c[nH]c3ncc(Cl)cc23)ncc1F [Compound 518, (1R,2S)-2-(2-(5-chloro-1H-pyrrolo[2,3-b]pyridin-3-yl)-5-fluoropyrimidin-4-ylamino)-N,N-diethylcyclohexanecarboxamide] | – | > 20 | –
38 | CCNC(=O)[C@@H]1CCCC[C@@H]1Nc1nc(-c2c[nH]c3ncc(Cl)cc23)ncc1F [Compound 519, (1R,2S)-2-(2-(5-chloro-1H-pyrrolo[2,3-b]pyridin-3-yl)-5-fluoropyrimidin-4-ylamino)-N-ethylcyclohexanecarboxamide] | – | 5 to 20 | –
39 | CCN(CC)C(=O)[C@H]1CCCC[C@@H]1Nc1nc(-c2c[nH]c3ncc(Cl)cc23)ncc1F [Compound 520] | – | > 20 | –
